Assay results published in patent US9234006B2, “Compounds” (Novacta Biosystems Limited, priority 2011, dated 2016).
Counter-ions that a name gives are not always drawn. Where a SMILES comes first, the peptide text is derived from it. Bridges are numbered along the chain shown (N, C = ends). [ ]: non-standard residue; d: D form. The star is where a group is joined. ξ: configuration not given here. Thr(3ξ) = CC(O)[C@H](N)C(=O)O; Dab = NCC[C@H](N)C(=O)O; Aoc = NCCCCCCCC(=O)O; X2 = NC1CCCC1C(=O)*; Ava = NCCCCC(=O)O; βAla = NCCC(=O)O

Experiments:
[1] = system: E. coli ATCC25922; experiment: MIC susceptibility testing, broth microdilution in CaMHB; format: cell-based, Escherichia coli
Description: (§1) To evaluate the potency and spectrum of the compounds, susceptibility testing was performed against four strains of each of the four Gram negative pathogens, Escherichia coli, Pseudomonas aeruginosa, Klebsiella pneumoniae and Acinetobacter baumannii.
(§2) The day before testing, 3 to 4 colonies were picked from fresh Mueller-Hinton Agar (MHA) plate and transferred into 10 mL of Cation adjusted MHB (CaMHB). Cultures were incubated at 37° C. 250 rpm for 18-20 hours before being diluted 100-fold in fresh CaMHB. The subcultures were grown further until the OD600 reached 0.2-0.3 corresponding to […]. The actively growing cultures were diluted 100-fold in fresh medium and used for the inoculum.
(§3) The assays were performed in duplicate.
(§4) Data was obtained under similar conditions to Table 4 except that different batches of cation-adjusted Muller-Hinton broth were used. The MIC values for these compounds are compared with those values obtained for Polymyxin B, Colistin Sulphate, CB-182,804 and NAB739 (as the TFA salt). CB-182,804 is a polymyxin decapeptide derivative with an aryl urea substituent at the N-terminus, which has been claimed to have lower toxicity than Polymyxin B (compound 5 in WO 2010/075416. See page 37). NAB739 has been described previously by Vaara et al.

[2] = system: E. coli ATCC700928; experiment: as above; format: cell-based, Escherichia coli
Description: as §1, §2, §3, §4

[3] = system: E. coli NCTC12900; experiment: as above; format: cell-based, Escherichia coli
Description: as §1, §2, §3, §4

[4] = system: E. coli NCTC9001; experiment: as above; format: cell-based, Escherichia coli
Description: as §1, §2, §3, §4

[5] = system: P. aeruginosa ATCC 9721; experiment: as above; format: cell-based, Pseudomonas aeruginosa
Description: as §1, §2, §3, §4

[6] = system: P. aeruginosa ATCC10145; experiment: as above; format: cell-based, Pseudomonas aeruginosa
Description: as §1, §2, §3, §4

[7] = system: P. aeruginosa ATCC27853; experiment: as above; format: cell-based, Pseudomonas aeruginosa
Description: as §1, §2, §3, §4

[8] = system: P. aeruginosa ATCCCRM-9027; experiment: as above; format: cell-based, Pseudomonas aeruginosa
Description: as §1, §2, §3, §4

[9] = system: K. pneumoniae ATCC 4352; experiment: as above; format: cell-based, Klebsiella pneumoniae
Description: as §1, §2, §3, §4

[10] = system: K. pneumoniae ATCCBAA-1706; experiment: as above; format: cell-based, Klebsiella pneumoniae
Description: as §1, §2, §3, §4

[11] = system: K. pneumoniae NCTC7427; experiment: as above; format: cell-based, Klebsiella pneumoniae
Description: as §1, §2, §3, §4

[12] = system: K. pneumoniae NCTC8172; experiment: as above; format: cell-based, Klebsiella pneumoniae
Description: as §1, §2, §3, §4

[13] = system: A. baumannii ATCC19606; experiment: as above; format: cell-based, Acinetobacter baumannii
Description: as §1, §2, §3, §4

[14] = system: A. baumannii ATCCBAA-747; experiment: as above; format: cell-based, Acinetobacter baumannii
Description: as §1, §2, §3, §4

[15] = system: A. baumannii NCTC13423; experiment: as above; format: cell-based, Acinetobacter baumannii
Description: as §1, §2, §3, §4

[16] = system: A. baumannii NCTC7844; experiment: as above; format: cell-based, Acinetobacter baumannii
Description: as §1, §2, §3, §4

[17] = Pharmacokinetic and urinary clearance studies in rats; format: in vivo; conditions: male, Sprague Dawley, rat, in vivo, iv, 1 mg/kg
Description: Drug solutions were prepared at 4 mg/mL in Normal Saline and the pH adjusted to 6-7 by adding the appropriate volume of 0.1 M H2SO4 or 4.2% NaHCO3. The solutions were filter-sterilized and stored at −80° C. before use. On the day of the experiment, drug solutions were diluted to 1 mg/mL with sterile Normal Saline.
Groups of 3 male Sprague Dawley rats were acclimatised for a minimum of 4 days before the study. Rats were anesthetized using isofluorane and a cannula was inserted into the jugular vein. One day after surgery, rats were dosed with an intravenous bolus injection of the solution at 1 mg/kg through the cannula, followed by washing with Normal Saline. Blood was collected manually through the cannula prior to administration of the compound and at 0.08, 0.25, 0.5, 1, 3, 6, 8 and 24 h thereafter. Plasma was harvested by centrifugation immediately after blood collection. Twenty-four hour urine samples were collected prior to and after administration of the compound in 0-4 h, 4-6 h, and 6-24 h intervals. Plasma and urine samples were frozen at −20° C.
Determination of the plasma and urine concentrations of the drug was performed by Liquid Chromatography Mass Spectrometry (LC-MS/MS). Before analysis the plasma and urine samples were prepared as follows. Plasma samples were thawed on the day of analysis and mixed with 3 volumes of acetonitrile containing 0.1% (v/v) formic acid and 100 ng/mL of internal standard. After centrifugation, supernatants were transferred to a 96-well plate and diluted 1:1 with water ready for analysis by LC-MS/MS. Urine samples were purified by solid-phase extraction (SPE) on Oasis HLB cartridges (Waters, UK) eluting with 100% methanol. An aliquot was transferred to a 96 well plate and diluted 1:1 with water before addition of internal standard solution, ready for analysis by LC-MS/MS.
The pharmacokinetic parameters were determined by non-compartmental analysis using WinNonLin v5.3. The urinary recovery was recorded as the percentage of intact drug recovered in the urine for the first 24 h after injection.

[18] = P. aeruginosa ATCC 9721, Table 4
[19] = P. aeruginosa ATCCCRM-9027, Table 4
[20] = K. pneumoniae ATCC 4352, Table 4
[21] = Table 4A, different batches of cation-adjusted Muller-Hinton broth

| SMILES | MIC ([1]; Table 4) [micrograms/mL] | MIC ([2]; Table 4) [micrograms/mL] | MIC ([3]; Table 4) [micrograms/mL] | MIC ([4]; Table 4) [micrograms/mL] | MIC [5, 18] [micrograms/mL] | MIC ([6]; Table 4) [micrograms/mL] | MIC ([7]; Table 4) [micrograms/mL] | MIC [8, 19] [micrograms/mL] | MIC [9, 20] [micrograms/mL] | MIC ([10]; Table 4) [micrograms/mL] | MIC ([11]; Table 4) [micrograms/mL] | MIC ([12]; Table 4) [micrograms/mL] | MIC ([13]; Table 4) [micrograms/mL] | MIC ([14]; Table 4) [micrograms/mL] | MIC ([15]; Table 4) [micrograms/mL] | MIC ([16]; Table 4) [micrograms/mL] | further results |
| --- | --- | --- | --- | --- | --- | --- | --- | --- | --- | --- | --- | --- | --- | --- | --- | --- | --- |
| CC(C)C[C@@H]1NC(=O)[C@@H](Cc2ccccc2)NC(=O)[C@H](CCN)NC(=O)[C@@H](NC(=O)[C@H](CCN)NC(=O)[C@@H](NC(=O)CN)C(C)O)CCNC(=O)[C@H](C(C)O)NC(=O)[C@H](CCN)NC(=O)[C@H](CCN)NC1=O (stereo partly shown) [Example 3, 2-Aminoethanoyl Polymyxin B Nonapeptide, Sulphate Salt] (H-G[Thr(3ξ)][Dab][Dab][Dab][dF]L[Dab][Dab][Thr(3ξ)]; lactam 4-C) | 2 | 4 | 8 | 4 | 0.125 | 0.25 | 0.5 | 0.125 | 1 | 16 | 0.5 | >32 | 2 | >32 | 16 | 16 |  |
| CC(C)C[C@@H]1NC(=O)[C@@H](Cc2ccccc2)NC(=O)[C@H](CCN)NC(=O)[C@@H](NC(=O)[C@H](CCN)NC(=O)[C@@H](NC(=O)CCN)C(C)O)CCNC(=O)[C@H](C(C)O)NC(=O)[C@H](CCN)NC(=O)[C@H](CCN)NC1=O (stereo partly shown) [Example 4, 3-Aminopropanoyl Polymyxin B Nonapeptide, Sulphate Salt] (H-[βAla][Thr(3ξ)][Dab][Dab][Dab][dF]L[Dab][Dab][Thr(3ξ)]; lactam 4-C) | 2 | 0.06 | 1 | 0.25 | 0.25 | 0.5 | 0.125 | 0.25 | 0.125 | 0.25 | 0.06 | 2 | 1 | 1 | 1 | 4 | AUC(0-inf) [17]: 2030 ng·h/mL; Cmax [17]: 2520 ng/mL; Vd [17]: 0.69 L/kg; clearance [17]: 8.2 mL/min/kg; half-life [17]: 1.33 h |
| CC(C)C[C@@H]1NC(=O)[C@@H](Cc2ccccc2)NC(=O)[C@H](CCN)NC(=O)[C@@H](NC(=O)[C@H](CCN)NC(=O)[C@@H](NC(=O)CCCCCCCN)C(C)O)CCNC(=O)[C@H](C(C)O)NC(=O)[C@H](CCN)NC(=O)[C@H](CCN)NC1=O (stereo partly shown) [Example 9, 8-Aminooctanoyl Polymyxin B Nonapeptide, Sulphate Salt] (H-[Aoc][Thr(3ξ)][Dab][Dab][Dab][dF]L[Dab][Dab][Thr(3ξ)]; lactam 4-C) | 2 | 1 | 1 | 2 | 0.5 | 2 | 0.5 | 0.5 | 0.5 | 0.5 | 0.5 | >32 | 16 | >32 | >32 | >32 |  |
| CC(C)C[C@@H]1NC(=O)[C@@H](Cc2ccccc2)NC(=O)[C@H](CCN)NC(=O)[C@@H](NC(=O)[C@H](CCN)NC(=O)[C@@H](NC(=O)C2CCCC2N)C(C)O)CCNC(=O)[C@H](C(C)O)NC(=O)[C@H](CCN)NC(=O)[C@H](CCN)NC1=O (stereo partly drawn) [Example 11, (1R,S/2R,S)-2-Aminocyclopentanecarbonyl Polymyxin B Nonapeptide, Sulphate Salt] (X2-[Thr(3ξ)][Dab][Dab][Dab][dF]L[Dab][Dab][Thr(3ξ)]; lactam 3-C) | 2 | 0.125 | 2 | 0.5 | 0.25 | 0.25 | 0.125 | 0.125 | 0.5 | 0.25 | 0.25 | 2 | 2 | 1 | 0.5 | 4 |  |
| CC(C)C[C@@H]1NC(=O)[C@@H](Cc2ccccc2)NC(=O)[C@H](CCN)NC(=O)[C@@H](NC(=O)[C@H](CCN)NC(=O)[C@@H](NC(=O)CCCCN)C(C)O)CCNC(=O)[C@H](C(C)O)NC(=O)[C@H](CCN)NC(=O)[C@H](CCN)NC1=O (stereo partly shown) [Example 15, 5-Aminopentanoyl polymyxin B nonapeptide] (H-[Ava][Thr(3ξ)][Dab][Dab][Dab][dF]L[Dab][Dab][Thr(3ξ)]; lactam 4-C) |  |  |  |  |  |  |  |  |  |  |  |  |  |  |  |  | MIC [1, 21]: 2 micrograms/mL; MIC [2, 21]: 1 micrograms/mL; MIC [3, 21]: 2 micrograms/mL; MIC [4, 21]: 2 micrograms/mL; MIC ([5]; P. aeruginosa ATCC9721, Table 4A, different batches of cation-adjusted Muller-Hinton broth): 0.125 micrograms/mL; MIC [6, 21]: 1 micrograms/mL; MIC [7, 21]: 0.25 micrograms/mL; MIC ([8]; P. aeruginosa AATCCRM 9027, Table 4A, different batches of cation-adjusted Muller-Hinton broth): 0.125 micrograms/mL; MIC ([9]; K. pneumoniae ATCC4352, Table 4A, different batches of cation-adjusted Muller-Hinton broth): 0.5 micrograms/mL; MIC [10, 21]: 0.5 micrograms/mL; MIC [11, 21]: 0.25 micrograms/mL; MIC [12, 21]: 4 micrograms/mL; MIC [13, 21]: 1 micrograms/mL; MIC [14, 21]: 8 micrograms/mL; MIC [15, 21]: 4 micrograms/mL; MIC [16, 21]: 8 micrograms/mL |
